Measured values: PMC11871066, “Structure-based discovery of hydrocarbon-stapled paxillin peptides that block FAK scaffolding in cancer” (Nature Communications, 2025)
Bridge positions count the residues as written; N and C are the ends. Square brackets hold non-standard residues; d marks the D form. Peptide text beside a SMILES is read from it. * marks the point of attachment. Myristoyl = CCCCCCCCCCCCCC(=O)*; R8 = C=CCCCCCC[C@@](C)(N)C(=O)O; S5 = C=CCCC[C@](C)(N)C(=O)O

System: SK-MEL-147 cells
Assay: Cellular uptake of TAMRA-labeled peptides
Type: in vitro ADME, human
Conditions: TAMRA-tagged, cell line not given

CCCCCCCCCCCCCC(=O)N[C@@H](CC(N)=O)C(=O)N[C@@H](CC(C)C)C(=O)N[C@]1(C)CCCCCCC=CCCC[C@@](C)(C(=O)N[C@@H](CCC(=O)O)C(=O)N[C@@H](CCC(=O)O)C(=O)N[C@@H](CC(N)=O)C(N)=O)NC(=O)[C@H](CC(C)C)NC(=O)[C@H](CC(C)C)NC(=O)[C@H](CCCNC(=N)N)NC(=O)[C@H](CC(=O)O)NC(=O)[C@H](CCC(=O)O)NC(=O)[C@H](CCC(=O)O)NC1=O [compound 2020] (Myristoyl-NL[R8]EEDRLL[S5]EEN-NH2; staple 3-10)
cell permeability compared to TAMRA-Alkyne control: approximately threefold higher
